Five molecules from ChEMBL document CHEMBL1145708, “Selective cytotoxicity of ginkgetin from Selaginella moellendorffii” (J Nat Prod, 1997) can be followed below.

Data set [1] concerns OVCAR-3. As to the kind of experiment: Growth inhibition of human OVCAR-3 cells upto 10 ug/ml after 48 hrs. It counts as functional, cell-based.
Data set [2] relates to OVCAR-3. Description: Growth inhibition of human OVCAR-3 cells after 48 hrs. In kind it is functional, cell-based.
The subject of a further data set is HeLa. Description: Growth inhibition of human HeLa cells. It counts as functional, cell-based.
A further data set concerns HepG2. Description: Growth inhibition of human HepG2 cells. In kind it is functional, cell-based.
Data set [3] is described as follows: Growth inhibition of HEK cells. To be noted: human, hek293. In kind it is cell-based.

Molecules are shown by their SMILES. Converted amounts (≈) assume the structure as drawn. The source made the active and inactive calls. The calls are words filed in the database; no cut-off is given here.

As to `COc1ccc(-c2cc(=O)c3c(O)cc(OC)c(-c4cc(-c5cc(=O)c6c(O)cc(O)cc6o5)ccc4OC)c3o2)cc1`, in the data set on OVCAR-3 [1], the outcome was inactive.

`COc1ccc(-c2cc(=O)c3c(O)cc(O)c(-c4cc(-c5cc(=O)c6c(O)cc(O)cc6o5)ccc4O)c3o2)cc1`: the outcome in the data set with OVCAR-3 [1] was inactive.

On to `O=c1cc(-c2ccc(O)c(-c3c(O)cc(O)c4c(=O)cc(-c5ccc(O)cc5)oc34)c2)oc2cc(O)cc(O)c12`, for which the result in the data set with OVCAR-3 [1] was inactive.

As to `COc1ccc(-c2cc(=O)c3c(O)cc(OC)c(-c4cc(-c5cc(=O)c6c(O)cc(OC)cc6o5)ccc4OC)c3o2)cc1`, in the data set with OVCAR-3 [1], the outcome was inactive.

On to `COc1cc(O)c2c(=O)cc(-c3ccc(OC)c(-c4c(O)cc(O)c5c(=O)cc(-c6ccc(O)cc6)oc45)c3)oc2c1` [GINKGETIN], for which the Activity entry with OVCAR-3 [2] was “Dose-dependent effect”; in data set [3], “Not Active”. The same molecule registered an IC50 in the data set with OVCAR-3 [2] (OVCAR-3, 48 h) of 1.8 µg/mL (≈ 3.18 µM). Moreover, the result with HeLa and in the data set on HepG2 was inactive.
